From patent US8299296B2, “Spiro compounds and pharmaceutical use thereof” (Japan Tobacco Inc., priority 2007, dated 2012)
Where a name gives a salt, the structure may show the parent alone.

Target: T1, human GPR40 (Homo sapiens, UniProt O14842)
T1 construct: expressed in transfected cells
Assay: Ca2+ mobilization (FLIPR) in a stable GPR40-expressing cell; GPR40 agonist activity
Format: cell-based
Settings: compound concentration corresponding to 50% PosiC, 100% = intracellular calcium level induced by 80 μM palmitic acid
Protocol: Evaluation of effect of test compounds on Ca^2+ mobilization by using a stable GPR40-expressing cell A stable human GPR40-expressing HEK293 cell was used. A cell suspension was prepared such that the above-mentioned cells were present at 6×10^5 cells/mL in a cell culture medium (D-MEM (Nikken Bio Medical Laboratory) supplemented with 10% (v/v) fetal bovine serum (Biowest) and 1% (v/v) penicillin-streptomycin solution (Invitrogen)). The cell suspension was plated in a 384-well plate (poly-D-lysine coated plate; Falcon) in a volume of 25 μl/well, and the plate was incubated at 37° C. in an atmosphere of 5% CO2 overnight. Each test compound was added to the cell at each concentration as below, and then the change in intracellular calcium level was measured by FLIPR^TETRA (Molecular Devices). Before the FLIPR assay, the following preparative solutions were prepared. First, an assay buffer was prepared for use in the preparation of a fluorescent dye solution and a diluent buffer solution. The assay buffer was prepared by adding 1M HEPES solution (Invitrogen) to Hanks' Balanced Salt Solution (Invitrogen), followed by adjusting the pH to 7.4 with 1M NaOH (Nacalai Tesque). Next, the fluorescent dye solution and the diluent buffer solution were prepared. The fluorescent dye solution was prepared in accordance with the instruction manual attached to Fluo-4NW calcium assay kit (Invitrogen), followed by addition of bovine serum albumin (Sigma) to a final concentration of 0.1% (w/v). The diluent buffer solution was prepared by adding bovine serum albumin (Sigma) to the assay buffer to give a final concentration of 0.1% (w/v). After removing a medium supernatant from the cell culture plate incubated overnight, the fluorescent dye solution was added to the plate in a volume of 25 μl/well. The plate was incubated at 37° C. in an atmosphere of 5% CO2 for 90 minutes to promote the fluorescent dye uptake in the cell. Meanwhile, the test compounds (i.e., the compounds prepared in Examples) dissolved in dimethyl sulfoxide (DMSO; Nacalai Tesque) were diluted with the diluent buffer solution, to prepare each compound solution at each concentration. In addition, a palmitic acid solution was prepared as a positive control solution (hereinafter abbreviated as PosiC). A 40 μl aliquot of each sample solution prepared as above was added to each well of a 384-well polypropylene plate to prepare a compound plate. Finally, after the sufficient uptake of the fluorescent dye in the cell, the cell plate and the compound plate were set to FLIPR^TETRA. After the above pretreatment, the change in intracellular calcium level was measured by FLIPR^TETRA upon addition of 25 μl of each test compound solution at each concentration. The GPR40 agonist activity of each test compound at each concentration was determined as a relative activity level (% PosiC) with the intracellular calcium level induced by 80 μM palmitic acid (a GPR40 agonist) set to 100%. Next, each compound concentration corresponding to 50% PosiC was calculated based on the % PosiC value, to compare between agonist activities of the test compounds. In the tables, “++++” indicates 0.01 μM or more but less than 0.1 μM, “+++” indicates 0.1 μM or more but less than 1 μM, “++” indicates 1 μM or more but less than 10 μM, and “+” indicates 10 μM or more for 50% posiC value. In the tables, “N.T.” indicates “not tested”.

T1 sequence (O14842 whole entry): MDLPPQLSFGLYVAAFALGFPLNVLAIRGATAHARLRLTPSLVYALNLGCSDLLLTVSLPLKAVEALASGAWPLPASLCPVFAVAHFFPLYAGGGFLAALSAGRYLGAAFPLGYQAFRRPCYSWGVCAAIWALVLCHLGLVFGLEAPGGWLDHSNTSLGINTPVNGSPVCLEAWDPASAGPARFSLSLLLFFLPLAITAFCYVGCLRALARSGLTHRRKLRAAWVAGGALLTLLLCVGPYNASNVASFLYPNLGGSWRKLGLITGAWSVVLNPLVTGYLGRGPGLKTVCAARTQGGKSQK

Row | SMILES | EC50 [nM]
1 | COC(CC(=O)O)c1ccc(OCC2CCCC3(CCCCC3)C2)cc1 (racemic) [Example 80, 3-methoxy-3-[4-(spiro[5.5]undec-2-ylmethoxy)-phenyl]-propionic acid] | 1000 to 10000
2 | CC#C[C@@H](CC(=O)O)c1ccc(OCC2CCCC3(CCCC3)C2)cc1 (single isomer, unassigned) [Example 39] | 100 to 1000
3 | CC#CC(CC(=O)O)c1ccc(COC2CCCC3(CCCCC3)C2)cc1 (racemic) [Example 82, 3-[4-(spiro[5.5]undec-2-yloxymethyl)-phenyl]-hex-4-ynoic acid] | 1000 to 10000
4 | CCC[C@@H](CC(=O)O)c1ccc(OCC2CCCC3(CCCCC3)C2)cc1 (mixture of isomers) [Example 78, (3S)-3-[4-(spiro[5.5]undec-2-ylmethoxy)-phenyl]-hexanoic acid] | 1000 to 10000
5 | CC#C[C@@H](CC(=O)O)c1ccc(OCC2=C[C@]3(CCC2)CC[C@H](O)C3)cc1 [Example 107, (3S)-3-[4-((2S,5R)-2-hydroxy-spiro[4.5]dec-6-en-7-ylmethoxy)-phenyl]-hex-4-ynoic acid sodium salt] | 100 to 1000
6 | CC#C[C@@H](CC(=O)O)c1ccc(OCC2=C[C@]3(CCC2)CC[C@@H](O)C3)cc1 [Example 105, (3S)-3-[4-((2R,5R)-2-hydroxy-spiro[4.5]dec-6-en-7-ylmethoxy)-phenyl]-hex-4-ynoic acid sodium salt] | 1000 to 10000
7 | CC#C[C@@H](CC(=O)O)c1ccc(OCC2=C[C@@]3(CCC2)CC[C@H](O)C3)cc1 [Example 99, (3S)-3-[4-((2S,5S)-2-hydroxy-spiro[4.5]dec-6-en-7-ylmethoxy)-phenyl]-hex-4-ynoic acid sodium salt] | 1000 to 10000
8 | CC#C[C@@H](CC(=O)O)c1ccc(OCC2CCC3(CCCC3)C2)cc1 (mixture of isomers) [Example 30, (3S)-3-[4-(spiro[4.4]non-2-ylmethoxy)-phenyl]-hex-4-ynoic acid] | 100 to 1000
9 | O=C(O)CCc1ccc(OCC2CCCC3(CCCCC3)C2)cc1 (single isomer, unassigned) [Example 89, 3-[4-(spiro[5.5]undec-2-ylmethoxy)-phenyl]-propionic acid (chiral: B)] | 1000 to 10000
10 | CC1(C)CCCCC12CCCC(COc1ccc(CCC(=O)O)cc1)C2 (racemic) [Example 56, 3-[4-(7,7-dimethyl-spiro[5.5]undec-2-ylmethoxy)-phenyl]-propionic acid] | 1000 to 10000
11 | C#CC(CC(=O)O)c1ccc(OCC2CCCC3(CCCCC3)C2)cc1 (racemic) [Example 85, 3-[4-(spiro[5.5]undec-2-ylmethoxy)-phenyl]-pent-4-ynoic acid] | 1000 to 10000
12 | O=C(O)CC(c1ccccc1)c1ccc(OCC2CCCC3(CCCCC3)C2)cc1 (racemic) [Example 60, 3-phenyl-3-[4-(spiro[5.5]undec-2-ylmethoxy)-phenyl]-propionic acid] | 1000 to 10000
13 | C/C=C\[C@@H](CC(=O)O)c1ccc(OCC2CCCC3(CCCCC3)C2)cc1 (mixture of isomers) [Example 77, (Z)-(3R)-3-[4-(spiro[5.5]undec-2-ylmethoxy)-phenyl]-hex-4-enoic acid] | 100 to 1000
14 | CC#C[C@@H](CC(=O)O)c1ccc(OCC2CCCC3(CCCC3)C2)cc1 (single isomer, unassigned) [Example 37] | 100 to 1000
15 | COc1cc(CCC(=O)O)ccc1OCC1=CC2(CCCC2)CCC1 [Example 111, 3-[3-methoxy-4-(spiro[4.5]dec-6-en-7-ylmethoxy)-phenyl]-propionic acid] | ≥ 10000
16 | CC1CCCC(C)C12CCCC(COc1ccc(CCC(=O)O)cc1)C2 (racemic) [Example 51, 3-[4-(7,11-dimethyl-spiro[5.5]undec-2-ylmethoxy)-phenyl]-propionic acid] | 1000 to 10000
17 | O=C(O)CCc1ccc(OCC2CCCC3(CCCCC3)C2)cc1 (single isomer, unassigned) [Example 88, 3-[4-(spiro[5.5]undec-2-ylmethoxy)-phenyl]-propionic acid (chiral: A)] | 1000 to 10000

Row | SMILES | EC50 [nM]
18 | C=CC(CC(=O)O)c1ccc(OCC2CCCC3(CCCCC3)C2)cc1 (racemic) [Example 86, 3-[4-(spiro[5.5]undec-2-ylmethoxy)-phenyl]-pent-4-enoic acid] | 1000 to 10000
19 | O=C(O)CCc1ccc(OCC2=CC3(CCCC3)CCC2)cc1Cl [Example 108, 3-[2-chloro-4-(spiro[4.5]dec-6-en-7-ylmethoxy)-phenyl]-propionic acid] | 1000 to 10000
20 | CC1(C)CCC2(CCCC(COc3ccc(CCC(=O)O)cc3)C2)CC1 (racemic) [Example 54, 3-[4-(9,9-dimethyl-spiro[5.5]undec-2-ylmethoxy)-phenyl]-propionic acid] | 1000 to 10000
21 | O=C(O)CC(CO)c1ccc(OCC2CCCC3(CCCCC3)C2)cc1 (racemic) [Example 69, 4-hydroxy-3-[4-(spiro[5.5]undec-2-ylmethoxy)-phenyl]-butyric acid] | 1000 to 10000
22 | CC#C[C@@H](CC(=O)O)c1ccc(OCC2=CC3(CCCCC3)CCC2)cc1 [Example 9, (S)-3-[4-(spiro[5.5]undec-1-en-2-ylmethoxy)-phenyl]-hex-4-ynoic acid] | 100 to 1000
23 | CC#C[C@H](c1ccc(OCC2CCCC3(CCCCC3)C2)cc1)C1SC(=O)NC1=O (mixture of isomers) [Example 68, 5-{(1S)-1-[4-(spiro[5.5]undec-2-ylmethoxy)-phenyl]-but-2-ynyl}-thiazolidine-2,4-dione] | 1000 to 10000
24 | CC#C[C@@H](CC(=O)O)c1ccc(OCC2=C[C@]3(CCC2)CCC(=O)C3)cc1 [Example 103, (3S)-3-[4-((5R)-2-oxo-spiro[4.5]dec-6-en-7-ylmethoxy)-phenyl]-hex-4-ynoic acid sodium salt] | 100 to 1000
25 | CC#C[C@@H](CC(=O)O)c1ccc(OCC2=C[C@@]3(CCC2)CC[C@@H](O)C3)cc1 [Example 101, (3S)-3-[4-((2R,5S)-2-hydroxy-spiro[4.5]dec-6-en-7-ylmethoxy)-phenyl]-hex-4-ynoic acid sodium salt] | 100 to 1000
26 | CC#C[C@@H](CC(=O)O)c1ccc(OCC2=CC3(CCCC3)CC2)cc1 [Example 17, (S)-3-[4-(spiro[4.4]non-1-en-2-ylmethoxy)-phenyl]-hex-4-ynoic acid] | 100 to 1000
27 | CC1(C)C=CC2(CCCC(COc3ccc(CCC(=O)O)cc3)C2)CC1 (racemic) [Example 53, 3-[4-(9,9-dimethyl-spiro[5.5]undec-7-en-2-ylmethoxy)-phenyl]-propionic acid] | 1000 to 10000
28 | CCC#CC(CC(=O)O)c1ccc(OCC2CCCC3(CCCCC3)C2)cc1 (racemic) [Example 84, 3-[4-(spiro[5.5]undec-2-ylmethoxy)-phenyl]-hept-4-ynoic acid] | 1000 to 10000
29 | CC1(C)CCCC2(CCCC(COc3ccc(CCC(=O)O)cc3)C2)C1 (racemic) [Example 48, 3-[4-(8,8-dimethyl-spiro[5.5]undec-2-ylmethoxy)-phenyl]-propionic acid] | 1000 to 10000
30 | CCOC(CC(=O)O)c1ccc(OCC2=CC3(CCCCC3)CCC2)cc1 (single isomer, unassigned; (-)) [Example 120, (−)-3-ethoxy-3-[4-(spiro[5.5]undec-1-en-2-ylmethoxy)-phenyl]-propionic acid L-lysine salt] | 100 to 1000
31 | CC#C[C@@H](CC(=O)O)c1ccc(OCC2CCC3(CCC3)C2)cc1 (mixture of isomers) [Example 118, (3S)-3-[4-(spiro[3.4]oct-6-ylmethoxy)-phenyl]-hex-4-ynoic acid] | 100 to 1000
32 | O=C(O)CCc1ccc(OCC2CCC3(CCCCC3)C2)cc1 (racemic) [Example 52, 3-[4-(spiro[4.5]dec-2-ylmethoxy)-phenyl]-propionic acid] | 1000 to 10000
33 | O=C(O)CCc1ccc(OCC2CCCC3(CCCCC3)C2)cc1 (racemic) [Example 46, 3-[4-(spiro[5.5]undec-2-ylmethoxy)-phenyl]-propionic acid] | 1000 to 10000
34 | CC#C[C@@H](CC(=O)O)c1ccc(OCC2=CCCC3(CCCCC3)C2)cc1 [Example 119, (S)-3-[4-(spiro[5.5]undec-2-en-2-ylmethoxy)-phenyl]-hex-4-ynoic acid L-lysine salt] | 100 to 1000
